Assay results: patent US20190117653A1, “SYSTEMS AND METHODS FOR TREATING BACTERIAL INFECTION” (priority 2016, published 2019)
Values after ≈ are worked out from the molar mass of the structure shown.

What was measured:
QTc interval [1] = conditions: human, in vivo
Method: A second single-dose ECG study was conducted on healthy human volunteers using weight-based doses of 0.4 mg/kg and 0.8 mg/kg iclaprim base infused over 30 minutes and 1.6 mg/kg infused over 60 minutes.

S. aureus strain AH1252 = assay: neutropenic rat lung infection model; assay type: in vivo, Staphylococcus aureus
Method: S. aureus strain AH1252, a thymidine knockout of the MRSA wild type AW6 strain, was utilized for this study. The bacterial strain was diluted in a 2% alginate buffer, which was added dropwise in a ratio of 1:5 into […] to form alginate beads. The alginate beads reduce the efficacy of bacterial clearance similar to that seen in the cystic fibrosis population. A 5.25×10^4 bacterial inoculum was administered to groups of 9 rats, intratracheally, with prepared alginate bacteria suspensions, under isoflurane anesthesia. […] Twelve hours after the last treatment, rats were euthanized and lungs collected for CFU determination.

[2] = 13-week toxicology study in the marmoset, AUC at NOAEL; assay type: in vivo; conditions: marmoset females
QTc interval [3] = assay: single-dose ECG study in healthy human volunteers (1.6 and 3.2 mg/kg); assay type: in vivo; conditions: 3.2 mg/kg infused over 30 minutes
Method: Based on this, a single-dose ECG-study was conducted in healthy human volunteers, where 1.6 mg/kg and 3.2 mg/kg iclaprim was infused over 30 minutes. […] Maximal increases coincided with Cmax levels and were rapidly reversible. Weight-based dosing with 1.6 mg/kg was thus assessed as acceptable for clinical purposes, whereas weight-based dosing at 3.2 mg/kg was associated with relevant QTc prolongations (>60 msec) and nonspecific T-wave alterations, and was not used for further clinical studies.

[4] = PK of IV iclaprim in moderate hepatic impairment; assay type: in vivo, human; conditions: moderate hepatic impairment (Child-Pugh grade B)
Method: For example, the PK profile of 0.8 mg/kg iclaprim administered by IV was investigated in 8 subjects with mild to moderate obesity (body mass index or “BMI” 30-40) and in 8 subjects with severe obesity (BMI>40). […] Linear regression analysis indicated a strong linear relationship between AUC (and Cmax) and BMI. Thus it was clear that the body composition of the subject affected the pharmacokinetics of IV administered iclaprim, with a greater percentage of body fat causing an increase in AUC and Cmax. […] Thus there is a risk of overdosing subjects with moderate hepatic impairment, which can be mitigated by reducing the IV iclaprim dose by about 50%.

[5] = system: isolated rabbit Purkinje fibers
[6] = system: methicillin-resistant Staphylococcus aureus (MRSA) isolates nonsusceptible to daptomycin, linezolid or vancomycin; assay: broth microdilution susceptibility of MRSA nonsusceptible to daptomycin, linezolid or vancomycin; assay type: cell-based
Method: Antibacterial susceptibility testing was conducted on a range of MRSA strains and isolates with varying susceptibilities to several recognized antistaphylococcal antibiotics. Susceptibility testing was performed by broth microdilution in accordance with the Clinical and Laboratory and Standards Institute (CLSI) guidelines. Minimum inhibitory concentrations (MICs) were based on CLSI criteria.

[7] = exposure to iclaprim in Phase I studies; conditions: human, in vivo
L-type calcium channel = L-type calcium channel (Homo sapiens, UniProt Q13936); assay: L-type calcium channel inhibition; assay type: cell-based
[8] = system: nosocomial pneumonia suspected or confirmed to be caused by Gram-positive pathogens; assay: Phase 2 study in nosocomial pneumonia, iclaprim versus vancomycin; assay type: in vivo, human
Source text: This MIC effect of surfactant on daptomycin activity has been reported to be mediated by binding of surfactant components to specific structures present on antibiotics, such as the lipophilic side-chain of daptomycin (Silverman et al., 2005). […] Collectively, the current in vitro study and a previous Phase 2 study support that iclaprim could be a potential treatment for pneumonia, including nosocomial pneumonia caused by susceptible and multidrug resistant Gram-positive bacteria.

[9] = system: common Gram-positive and Gram-negative respiratory bacteria; assay: pulmonary surfactant interaction, overall effect of BPS on MIC and MICRZ; assay type: cell-based; conditions: 2.5% (v/v) BPS; all tested strains or isolates
Method: Antibacterial susceptibility testing was measured by JMI Labs (North Liberty, Iowa, USA). […] These clinical isolates were collected from US (n=4), Mexico (n=2), and Italy (n=1). Susceptibility testing was performed by broth microdilution in accordance with the Clinical and Laboratory and Standards Institute (CLSI) guidelines M07-A10 (2015) and the standard operating procedures at JMI laboratories. Minimum inhibitory concentrations (MICS) were based on CLSI criteria (2015). There are no published breakpoints for iclaprim. E. coli, K. pneumoniae, M. catarrhalis, E. faecalis, and S. aureus were tested in cation-adjusted Mueller-Hinton broth (CA-MHB). […]
Because bovine pulmonary surfactant can introduce cloudiness to the MIC testing media, antimicrobial growth inhibition was also evaluated using the colorimetric metabolic indicator resazurin (Camlab Ltd., Cambridge, UK). […] Growth inhibition was then evaluated as a visible color change from blue (no growth) to pink (robust growth) and recorded as a MIC1z value.
The MICs of iclaprim, levofloxacin, and daptomycin were determined against Gram-positive and Gram-negative isolates.
A new vial of bovine pulmonary surfactant (BPS; Survanta®; Abbott Laboratories, Columbus, Ohio) was utilized for each independent experiment. […] MICs of daptomycin were determined in CAMHB with the Ca^2+ content adjusted to 50 mg/L.

S. aureus = conditions: worldwide surveillance studies; cited from earlier work

Chain of L-type calcium channel (Q13936 whole entry): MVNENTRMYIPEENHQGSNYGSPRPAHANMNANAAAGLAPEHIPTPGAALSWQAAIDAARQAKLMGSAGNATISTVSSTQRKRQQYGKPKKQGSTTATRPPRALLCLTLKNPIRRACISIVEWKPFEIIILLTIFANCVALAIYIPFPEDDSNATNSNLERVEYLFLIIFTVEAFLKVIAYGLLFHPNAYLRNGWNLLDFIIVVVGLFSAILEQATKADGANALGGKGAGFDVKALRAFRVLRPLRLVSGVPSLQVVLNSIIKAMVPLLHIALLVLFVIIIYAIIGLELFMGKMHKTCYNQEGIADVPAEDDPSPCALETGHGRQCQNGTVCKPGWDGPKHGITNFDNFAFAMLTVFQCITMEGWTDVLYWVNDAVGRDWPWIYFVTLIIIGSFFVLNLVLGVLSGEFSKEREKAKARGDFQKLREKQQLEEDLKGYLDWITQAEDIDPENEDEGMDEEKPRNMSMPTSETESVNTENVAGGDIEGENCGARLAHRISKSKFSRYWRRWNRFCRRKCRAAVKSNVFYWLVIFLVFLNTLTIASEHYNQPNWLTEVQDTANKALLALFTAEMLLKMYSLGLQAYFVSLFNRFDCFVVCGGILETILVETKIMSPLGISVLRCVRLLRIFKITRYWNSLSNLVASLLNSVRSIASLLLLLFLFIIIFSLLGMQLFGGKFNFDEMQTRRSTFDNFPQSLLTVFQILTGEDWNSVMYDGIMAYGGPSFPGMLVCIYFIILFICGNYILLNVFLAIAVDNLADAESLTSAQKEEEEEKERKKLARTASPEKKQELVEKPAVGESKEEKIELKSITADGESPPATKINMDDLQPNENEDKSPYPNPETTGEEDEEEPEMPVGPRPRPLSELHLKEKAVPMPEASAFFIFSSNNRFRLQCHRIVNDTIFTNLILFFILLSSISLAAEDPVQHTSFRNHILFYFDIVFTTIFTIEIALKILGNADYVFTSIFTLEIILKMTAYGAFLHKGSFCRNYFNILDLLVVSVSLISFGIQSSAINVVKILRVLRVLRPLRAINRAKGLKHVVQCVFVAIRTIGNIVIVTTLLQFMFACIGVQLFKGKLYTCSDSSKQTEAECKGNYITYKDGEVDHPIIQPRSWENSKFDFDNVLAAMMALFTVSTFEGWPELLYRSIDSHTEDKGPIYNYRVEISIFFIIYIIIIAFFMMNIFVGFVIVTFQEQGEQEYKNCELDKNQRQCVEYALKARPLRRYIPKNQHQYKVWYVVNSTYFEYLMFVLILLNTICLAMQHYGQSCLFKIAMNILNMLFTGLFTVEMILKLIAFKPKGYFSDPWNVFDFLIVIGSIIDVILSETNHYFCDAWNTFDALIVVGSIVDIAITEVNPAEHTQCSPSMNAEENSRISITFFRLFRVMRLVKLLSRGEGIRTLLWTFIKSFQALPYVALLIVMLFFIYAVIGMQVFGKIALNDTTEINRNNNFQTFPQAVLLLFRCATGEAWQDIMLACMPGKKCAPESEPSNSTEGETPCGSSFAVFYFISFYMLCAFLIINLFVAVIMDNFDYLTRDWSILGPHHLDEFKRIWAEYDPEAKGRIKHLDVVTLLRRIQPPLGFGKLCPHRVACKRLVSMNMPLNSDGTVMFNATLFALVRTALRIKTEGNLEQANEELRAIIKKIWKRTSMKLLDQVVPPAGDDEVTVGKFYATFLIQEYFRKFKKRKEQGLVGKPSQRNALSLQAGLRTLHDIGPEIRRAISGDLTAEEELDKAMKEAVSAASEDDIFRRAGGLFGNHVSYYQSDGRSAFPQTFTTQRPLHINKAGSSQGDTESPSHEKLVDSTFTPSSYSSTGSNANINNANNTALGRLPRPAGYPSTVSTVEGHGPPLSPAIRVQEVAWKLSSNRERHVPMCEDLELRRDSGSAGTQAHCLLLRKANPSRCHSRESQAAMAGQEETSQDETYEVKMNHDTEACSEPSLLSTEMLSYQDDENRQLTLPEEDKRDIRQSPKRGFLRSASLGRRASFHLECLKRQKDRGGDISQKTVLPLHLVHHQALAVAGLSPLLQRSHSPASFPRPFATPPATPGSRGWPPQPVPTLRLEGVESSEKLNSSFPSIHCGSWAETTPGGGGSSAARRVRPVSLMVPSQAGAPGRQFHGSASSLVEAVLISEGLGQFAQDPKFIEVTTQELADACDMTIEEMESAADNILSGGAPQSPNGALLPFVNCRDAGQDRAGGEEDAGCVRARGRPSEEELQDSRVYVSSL

COc1cc(Cc2cnc(N)nc2N)c2c(c1OC)OC(C1CC1)C=C2 (racemic) [Iclaprim]
post-infusion QTcF prolongation from baseline (no subject above) (QTc interval [1]): ≤ 60 ms | 72 hour lungs log10CFU/Lung (CFU/gram of lung) (S. aureus strain AH1252; 80 mg/kg SC/BID): 3.34 | Change in CFUs from 2 hr. infection controls (S. aureus strain AH1252; 80 mg/kg SC/BID): 0.22 log 10 CFU | Change in CFUs from 72 hr. infection controls (S. aureus strain AH1252; 80 mg/kg SC/BID): −5.34 log 10 CFU | Survival >60 hrs (S. aureus strain AH1252; 80 mg/kg SC/BID (160 mg/kg/day) 3 days): 9/9 | CFU reduction from the 72 hour infection controls (S. aureus strain AH1252; iclaprim 80 mg/kg SC/BID): 5.34 log 10 CFU | AUC achieved at the NOAEL [2]: 26,600 hr×ng/mL | QTc prolongation (QTc interval [3]): > 60 ms | increase in AUC [4]: 2.5 fold | increase in Cmax [4]: 1.4 fold | concentration at which action potential duration was increased [5]: above 1 μM | isolates with MIC≤1 μg/ml ([6]; MRSA nonsusceptible to daptomycin (5 of 7)): 71.4% | isolates with MIC≤1 μg/ml ([6]; MRSA nonsusceptible to linezolid (25 of 25)): 100% | isolates with MIC≤1 μg/ml ([6]; MRSA nonsusceptible to vancomycin (18 of 27)): 66.7% | AUC ([7]; 1 mg/kg): 2,575 ± 757 hr × ng/mL | AUC ([7]; 4 mg/kg): 8,894 [29.0] hr × ng/mL | Cmax ([7]; 4 mg/kg): 2,851 [19.2] ng/mL | IC50 (L-type calcium channel): 46 µM | cure rate, intent-to-treat population ([8]; iclaprim 0.8 mg/kg IV q12h, test of cure visit (17 of 23)): 73.9% | cure rate, intent-to-treat population ([8]; iclaprim 1.6 mg/kg IV q8h, test of cure visit (15 of 24)): 62.5% | death rate within 28 days of the start of treatment ([8]; iclaprim q8h (3 of 24)): 12.5% | death rate within 28 days of the start of treatment ([8]; iclaprim q12h (2 of 23)): 8.7% | effect of BPS on MIC and MICRZ values [9]: minimal or no effect | MIC90 (S. aureus): 0.12 µg/mL (≈ 0.339 µM)
